# In US20110117012A1, “RADIOLABELED GALLIUM COMPLEXES, METHODS FOR SYNTHESIS AND USE FOR PET IMAGING OF EGFR EXPRESSION IN MALIGNANT TUMORS” (priority 2003, published 2011):
# Entries after “also recorded” stand apart in the source; their conditions may differ. Like-named read-outs stand apart in the source and are kept apart here.
# Tests used:
# [1] = tested on: U343 cells; experiment: Cellular internalization by acid wash, U343 cells; type: cell-based, human
# Excerpt: (§1) The human squamous carcinoma cell line A431 (ATCC, CLR 1555, Rocksville, Md., USA) and the malignant glioma cell line U343MGaC12:6 (Westermark B, Magnusson A, Heldin C H. Effect of epidermal growth factor on membrane motility and cell locomotion in cultures of human clonal glioma cells. J Neurosci Res. 1982; 8(2-3): 491-507) (from now on denoted U343) were used in all cell experiments. This A431 cell line is reported to express approximately 2×10^6 EGFR per cell, and the U343 cell line express approximately 5.5×10^5 EGFR per cell. […]
# (§2) Instead of trypsinising the cells, treatment with 0.5 ml ice-cold 0.1 M glycin-HCl buffer, pH 2.5 for 6 min at 0° C. was used to extract the membrane bound fraction of the conjugate. […] The remaining radioactivity, considered to be internalized radioactivity, was collected by treatment with 0.5 ml 1 M NaOH solution at 37° C. for about 60 min. […] The collected fractions were measured in an automated gamma counter.
# (§3) In this study, the degree of internalization was estimated by acid wash. Radioactivity, which was removed from cells by an acidic buffer was considered as membrane-bound, and the rest as internalized. […] More than 50% of the radioactivity was internalized at 30 min after the start of incubation in the case of glioma U343 cells.
# [2] = tested on: U343 cells; experiment: Cellular retention of radioactivity after interrupted incubation, U343 cells; type: cell-based, human; conditions: 4 hours after interrupted incubation
# Excerpt: as §1, with “cell. The cells were cultured in Ham's F10 medium (Biochrom Kg), supplemented with 10% fetal calf serum (Sigma), L-glutamine (2 mM) and PEST (penicillin 100 IU/ml and streptomycin 100 μg/ml) both from Biochrom Kg. During cell culture and cell experiments (unless otherwise stated) cells were grown at 37° C. in incubators with humidified air, equilibrated with 5% CO2.” for “cell.”
# (§4) After the incubation, the cells were washed thoroughly to eliminate unbound conjugate, and the incubation was then continued in fresh cell culture medium. After 0.5-4 h, the cells were trypsinized, counted and measured for radioactivity, as described above.
# (§5) An initial drop of radioactivity, which was most likely due to dissociation of membrane-bound conjugates, was followed by a relatively constant amount of cell-bound ^68Ga.
# [3] = tested on: A431 tumor xenografts; experiment: MicroPET imaging of tumor-bearing mice; type: in vivo
# Procedure: (§6) The in vivo studies were carried out in adult female Balb/c nu/nu mice (21-25 g) (Möllegård, Denmark) with tumor xenografts. All animals were handled according to the guidelines by the Swedish Animal Welfare Agency, and the experiments were approved by the local Ethics Committee for Animal Research. The mice were injected subcutaneously with A431 tumor cells (approximately 7 million cells per tumor in 100 μl cell culture medium) in both front legs. The tumors were allowed to grow for 12-13 days before the experiments were performed, and had then reached a weight of 0.1-0.8 g.
# Imaging was performed on a microPET R4 scanner (Concorde Microsystems, Inc.), with a computer-controlled bed and 10 cm transaxial and 8 cm axial field of view (FOV). […] After completion of the study the animals were decapitated under anesthesia and blood, liver, and kidney samples were collected for radioactivity measurements.
# Scatter correction, random counts and dead time correction were all incorporated into the reconstruction algorithm. Radiation attenuation in each animal was measured with two rotating rod sources containing ^68 Ge/^68Ga before tracer injection and the images were corrected for radiation attenuation. […] Pharmacokinetic curves, representing the radioactivity concentrations (percentage of injected dose per gram of tissue), versus time after injection were determined accordingly. […]
# [4] = tested on: A431 tumor xenografts; design: species or system Balb/c nu/nu mice; conditions: mouse, in vivo, iv, 0.5 h
# Procedure: as §6
# In order to estimate an influence of amount injected conjugate on uptake in tumors and normal tissues, a biodistribution study was performed. […] The mice were anesthetised by an intraperitoneal injection of a mixture of Rompun (1 mg/ml) and Ketalar (10 mg/ml), 0.2 ml per 10 g of animal weight, and killed by heart puncture. In addition to the tumors, blood, heart, pancreas, spleen, stomach, liver, kidneys, lungs, small and large intestine, muscle, bone and salivary gland were collected, weighed and measured in an automated gamma counter. The tails were also measured for radioactive content, in order to determine the accuracy of the injections. Organ values were calculated as percent of injected activity per g of organ (% IA/g).
# [5] = tested on: A431 cells; experiment: Cellular internalization by acid wash, A431 cells; type: cell-based, human
# Excerpt: as §1, §2, §3
# [6] = type: physicochemical
# Procedure: Analytical liquid chromatography (LC) was performed using a HPLC system from Beckman (Fullerton, Calif., USA) consisting of a 126 pump, a 166 UV detector and a radiation detector coupled in series. Data acquisition and handling was performed using the Beckman System Gold Nouveau Chromatography Software Package. The column used was a Vydac RP 300 Å HPLC column (Vydac, USA) with the dimensions 150 mm×4.6 mm, 5 μm particle size. The applied gradient elution had the following parameters: A=10 mM TFA; B=70% acetonitrile (MeCN), 30% H2O, 10 mM TFA with UV-detection at 220 nm; flow was 1.2 mL/min; 0-2 min isocratic 20% B, 20-90% B linear gradient 8 min, 90-20% B linear gradient 2 min The quantity of ^68Ga-DOTA-hEGF and radio-impurities retained on the column could be obtained by measuring the activity of the sample injected on the column and the fractions collected from the outlet with a crystal scintillation counter. The overall loss on the system was 10%. The measured activity of the fractions of ^68Ga-DOTA-hEGF and hydrophilic radio-impurities were in agreement with the respective values obtained from the HPLC chromatograms. […]
# The microwave-accelerated labeling of the conjugates (Scheme 1) was performed using a non-concentrated or a pre-concentrated generator ^68Ga-eluate. […] Pre-concentration of eluate allowed to obtain specific radioactivity of 28 MBq/nmol. […]
# [7] = tested on: A431 cells; experiment: Cellular retention of radioactivity after interrupted incubation, A431 cells; type: cell-based, human; conditions: 4 hours after interrupted incubation
# Excerpt: as §1, with “cell. The cells were cultured in Ham's F10 medium (Biochrom Kg), supplemented with 10% fetal calf serum (Sigma), L-glutamine (2 mM) and PEST (penicillin 100 IU/ml and streptomycin 100 μg/ml) both from Biochrom Kg. During cell culture and cell experiments (unless otherwise stated) cells were grown at 37° C. in incubators with humidified air, equilibrated with 5% CO2.” for “cell.”
# as §4, §5
substance,measurement,setting,value
^68Ga-DOTA-EGF: recombinant human epidermal growth factor conjugated to the chelator DOTA (one to three DOTA) and labeled with 68Ga; PET tracer,radioactivity internalized,[1]; 30 min after the start of incubation,More than 50%
same,internalization rate,"[1]; acid wash, compared to A431",faster
same,cell-associated radioactivity (retention),[2],more than 70%
same,organ distribution by microPET,"[3]; 0.16 nmol injected, liver, kidneys, tumours, pharmacokinetic curves",Prominent uptake was observed in the liver and kidneys; also recorded: rapid distribution
same,tumor visualization by microPET,"[3]; 30 min after administration of 2.0 MBq, right and left leg tumors",visible with clear contrast
same,radioactivity remaining in the circulation (blood),[4]; 0.016 nmol per animal,less than 1 % IA/g
same,uptake in the A431 tumour xenograft,[4]; 0.016 nmol per animal,1.51±0.16 % IA/g
same,radioactivity remaining in the circulation (blood),[4]; 0.16 nmol per animal,less than 1 % IA/g
same,uptake in the A431 tumour xenograft,[4]; 0.16 nmol per animal,2.69±0.29 % IA/g
same,internalization rate,[5],rapid process
same,stability in PBS,[6],stable
same,cell-associated radioactivity (retention),[7],more than 70%
